# Non-standard residues stand in square brackets, D forms with d. *: point of attachment. Ida = 2,2'-azanediyldiacetic acid, O=C(O)CNCC(=O)*; Ida(NHPal) = Ida cap bearing a palmityl amide; Dip = N[C@H](C(=O)O)C(c1ccccc1)c1ccccc1; β3hP = O=C(O)C[C@@H]1CCCN1; Ahx = NCCCCCC(=O)O
# Experiments:
# mouse [1] = assay: Activity at 20 nmoles/mouse: serum iron 4 hours after injection versus solvent (Tables 3 and 4); assay type: in vivo; design: key: Y: “Active” means that the injection of the compound resulted in statistically significant (p < 0.05) lowering of serum iron compared to solvent injection when measured 4 hours after administration; Y*: detectable and reproducible activity but at least 50% lower than other active compounds in Table 4; details: Table 4; intraperitoneal; serum iron 4 h after administration
# Hamp1-/- mice [2] = assay: Treatment study: 2 weeks daily PR65 in iron-overloaded hepcidin knockout mice; assay type: in vivo, mouse; details: 50 nmoles daily s.c., 14 days
# Protocol: To test the effect of PR65 on iron-loaded Hamp1^−/− mice (“treatment” studies), male mice were kept on the standard diet for their entire lifespan. Beginning at 12-14 weeks of age, 50 nmoles of PR65 or solvent was injected daily by the subcutaneous route for 2 weeks.
# To assess the potential of mini-hepcidins as a standalone treatment for iron overload in subjects, 12 week old iron-overloaded hepcidin knockout mice were injected with 50 nmoles of PR65 daily for 14 days. […] In contrast to mice that were iron-depleted before PR65 administration, in mice with established iron overload serum iron levels were not decreased 24 hours after the last dose compared to solvent-treated mice (p=0.682) (FIG. 15B). […] The less than 24 hours duration of the hypoferremic effect of each 50 nmoles dose may have been due to the severe iron overload of the hepcidin knockout mice at this age. Accumulated hepatocyte iron could stimulate ferroportin synthesis and iron efflux from hepatocytes into plasma by relieving the inhibition of ferroportin translation by iron-regulatory proteins (IRPs) interacting with 5′ iron-regulatory element (5′ IRE) in the ferroportin mRNA, and possibly by other mechanisms.
# Hamp1-/- mice [3] = assay: Prevention study: 2 weeks daily PR65 in iron-depleted hepcidin knockout mice on iron-loading diet
# Protocol: PR65 was administered subcutaneously in 100 μl of SL220 solubilizer. Short-term studies were carried out for up to 48 hours to establish the effectiveness of a single injection. Long-term studies (“prevention” and “treatment”) were carried out for 2 weeks using daily injections and iron and hematological parameters measured 24 hours after the last injection.
# To test the ability of PR65 to prevent, inhibit, or reduce iron loading (“prevention” studies), male Hamp1^−/− mice were iron-depleted by placing them on a low-iron diet (4 ppm iron) for 2 months starting at the age of 5-6 weeks. […] A group of mice was analyzed immediately after iron depletion (baseline group), and the remaining animals were switched to an iron-loading diet (standard chow, about 300 ppm Fe) and received daily subcutaneous injection of solvent or PR65 (20, 50 or 100 nmoles) for 2 weeks. All mouse diets were obtained from Harlan-Teklad (Madison, Wis.).
# Serum iron and non-heme iron concentrations were determined as previously described (Ramos E, et al. (2011) Hepatology 53(4):1333-1341), using acid treatment followed by a colorimetric assay for iron quantitation (Genzyme, Cambridge, Mass.). […] Complete blood counts were obtained with a HemaVet blood analyzer (Drew Scientific, Oxford, Conn.).
# After iron depletion, a group of mice was analyzed to establish the baseline iron and hematological parameters and the rest of the mice were placed on an iron-loading diet (300 ppm Fe) for 2 weeks while simultaneously receiving daily subcutaneous injections of solven only (control) or PR65 (20, 50 or 100 nmoles) in solvent. […] Hemoglobin concentrations were monitored to detect potential iron-restrictive effects of hepcidin excess on erythropoiesis.
# mouse [4] = assay: Activity at 20 nmoles/mouse: serum iron 4 hours after injection versus solvent (Tables 3 and 4); assay type: in vivo; design: key: Y: “Active” means that at 4 hours after injection serum iron in peptide-injected mice decreased statistically significantly (p < 0.05) compared to solvent-injected mice; Y*: Exhibits detectable and reproducible activity at about 50% lower than the most active compounds in Table 3 and 4; details: Table 3; subcutaneous
# mouse [5] = assay: as above; assay type: in vivo; design: key: Y: “Active” means that at 4 hours after injection serum iron in peptide-injected mice decreased statistically significantly (p < 0.05) compared to solvent-injected mice; Y*: Exhibits detectable and reproducible activity at about 50% lower than the most active compounds in Table 3 and 4; details: Table 3, intraperitoneal
molecule,measurement,setting,value
PR82: SEQ ID NO: 101; Ida-T-H-Dpa-bhPro-R-C-R-W-Ahx-Ida(NHPal) (Ida-TH[Dip][β3hP]RCRW-{Ahx-Ida(NHPal)}),Active @ 20 nmoles/mouse IP,mouse [1],Y
CCCCCCCCCCCCCCCC(=O)NCCCOCCOCCOCCCNC(=O)C[C@H](Cc1ccccc1)NC(=O)[C@H](CCCNC(=N)N)NC(=O)[C@H](CS)NC(=O)[C@H](CCCNC(=N)N)NC(=O)C[C@@H]1CCCN1C(=O)[C@@H](NC(=O)[C@H](Cc1c[nH]cn1)NC(=O)[C@@H](NC(=O)CNCC(=O)O)[C@@H](C)O)C(c1ccccc1)c1ccccc1 [PR65],decrease in hemoglobin,Hamp1-/- mice [2],2 g/dL
same,hemoglobin levels,"Hamp1-/- mice [3]; 20 nmoles per day s.c., 2 weeks",did not change significantly
same,reduction of hemoglobin concentration,"Hamp1-/- mice [3]; 50 nmoles per day s.c., 2 weeks",3 g/dL
same,anemia,"Hamp1-/- mice [3]; 100 nmoles daily, 2 weeks",moderately anemic
same,reduction of hemoglobin concentration,"Hamp1-/- mice [3]; 100 nmoles per day s.c., 2 weeks",5 g/dL
same,maximal tolerated dose,Hamp1-/- mice [3]; daily s.c. dosing,50 nmol
CCCCCCCCCCCCCCCC(=O)NCCCOCCOCCOCCCNC(=O)COCCOCCOCCNC(=O)C[C@H](Cc1ccccc1)NC(=O)[C@H](CCCNC(=N)N)NC(=O)[C@H](CS)NC(=O)[C@H](CCCNC(=N)N)NC(=O)C[C@@H]1CCCN1C(=O)[C@@H](NC(=O)[C@H](Cc1c[nH]cn1)NC(=O)[C@@H](NC(=O)CNCC(=O)O)[C@@H](C)O)C(c1ccccc1)c1ccccc1 [PR61],Active @ 20 nmoles/mouse by SQ,mouse [4],Y (also
same,Active @ 20 nmoles/mouse IP,mouse [5],Y (also
